Molecular target: T1, PD-1/PD-L1 (Homo sapiens, UniProt Q9NZQ7)
T1 construct: TVMV protease site linker (C); made in house; host or cells: HEK293T cells
Assay: PD-1/PD-L1 Homogenous Time-Resolved Fluorescence (HTRF) binding assay
Settings: PD-L1-His 10 nM, PD-1-Ig 20 nM
Procedure, shortened: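 Time-resolved FRET read-out using Eu-cryptate anti-Ig (1 nM final) and APC anti-His (20 nM final). Tagged extracellular domains were used in BSA/Tween-20-supplemented dPBS, with compound pre-incubated 15 min with PD-L1-His (10 nM) before PD-1-Ig (20 nM) was added for 15 min. Other human pairs: PD-L2-His 5 nM with PD-1-Ig 20 nM; PD-L1-Ig 10 nM with CD80-His 100 nM.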

T1 sequence (Q9NZQ7 18-239): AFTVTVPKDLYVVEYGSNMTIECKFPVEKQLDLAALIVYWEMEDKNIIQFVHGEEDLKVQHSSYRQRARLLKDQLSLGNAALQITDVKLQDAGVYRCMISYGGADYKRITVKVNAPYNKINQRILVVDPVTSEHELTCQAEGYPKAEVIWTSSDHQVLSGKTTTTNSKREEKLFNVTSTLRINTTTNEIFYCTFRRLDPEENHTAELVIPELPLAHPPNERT

Row | SMILES | IC50 [nM]
1 | Cc1c(COc2cc(OCc3cncc(C#N)c3)c(CN(C)CCc3c[nH]cn3)cc2Cl)cccc1-c1cccc(OCCCN2CC[C@@H](O)C2)c1C [Example 2535, (R)-5-((2-(((2-(1H-imidazol-4-yl)ethyl)(methyl)amino)methyl)-4-chloro-5-((3′-(3-(3-hydroxypyrrolidin-1-yl)propoxy)-2,2′-dimethyl-[1,1′-biphenyl]-3-yl)methoxy)phenoxy)methyl)nicotinonitrile] | 3.9
2 | Cc1c(COc2cc(OCc3cncc(C#N)c3)c(CN3CCCCC3c3cn[nH]c3)cc2Cl)cccc1-c1cccc(OCCCNC[C@H](O)CO)c1Cl (stereo partly drawn) [Example 1032, 5-((2-((2-(1H-Pyrazol-4-yl)piperidin-1-yl)methyl)-4-chloro-5-((2′-chloro-3′-(3-(((S)-2,3-dihydroxypropyl)amino)propoxy)-2-methyl-[1,1′-biphenyl]-3-yl)methoxy)phenoxy)-methyl)nicotinonitrile] | 0.8
3 | Cc1c(COc2cc(OCc3cncc(C#N)c3)c(CNCCc3ncn[nH]3)cc2Cl)cccc1-c1cccc(OCC2CCCN(C)C2)c1Cl (stereo not drawn) [Example 2579, 5-((2-(((2-(1H-1,2,4-triazol-5-yl)ethyl)amino)methyl)-4-chloro-5-((2′-chloro-2-methyl-3′-((1-methylpiperidin-3-yl)methoxy)-[1,1′-biphenyl]-3-yl)methoxy)phenoxy)methyl)nicotinonitrile] | 0.5
4 | Cc1c(COc2cc(OCc3cncc(C#N)c3)c(CNCc3nccs3)cc2Cl)cccc1-c1cccc(OCC2CCCN(C)C2)c1Cl (stereo not drawn) [Example 2585, 5-((4-chloro-5-((2′-chloro-2-methyl-3′-((1-methylpiperidin-3-yl)methoxy)-[1,1′-biphenyl]-3-yl)methoxy)-2-(((thiazol-2-ylmethyl)amino)methyl)phenoxy)methyl)nicotinonitrile] | 2.8
5 | Cc1c(COc2cc(OCc3cncc(C#N)c3)c(CN(C)Cc3cn[nH]c3)cc2Cl)cccc1-c1cccc(OCCCN2CC[C@@H](O)C2)c1C [Example 2525, (R)-5-((2-((((1H-pyrazol-4-yl)methyl)(methyl)amino)methyl)-4-chloro-5-((3′-(3-(3-hydroxypyrrolidin-1-yl)propoxy)-2,2′-dimethyl-[1,1′-biphenyl]-3-yl)methoxy)phenoxy)methyl)nicotinonitrile] | 2.2
6 | Cc1c(COc2cc(OCc3cncc(C#N)c3)c(CN(C)Cc3cc(C4CC4)on3)cc2Cl)cccc1-c1cccc(OCCCN2CC[C@@H](O)C2)c1C [Example 2552, (R)-5-((4-chloro-2-((((5-cyclopropylisoxazol-3-yl)methyl)(methyl)amino)methyl)-5-((3′-(3-(3-hydroxypyrrolidin-1-yl)propoxy)-2,2′-dimethyl-[1,1′-biphenyl]-3-yl)methoxy)phenoxy)methyl)nicotinonitrile] | 7.3
7 | CC(=O)NC1CCN(CCCOc2cccc(-c3cccc(COc4cc(OCc5cncc(C#N)c5)c(CNc5nnn[nH]5)cc4Cl)c3C)c2C)CC1 [Example 1036, N-(1-(3-((3′-((4-(((1H-Tetrazol-5-yl)amino)methyl)-2-chloro-5-((5-cyanopyridin-3-yl)-methoxy)phenoxy)methyl)-2,2′-dimethyl-[1,1′-biphenyl]-3-yl)oxy)propyl)piperidin-4-yl)-acetamide] | 4.2
8 | Cc1c(COc2cc(OCc3cncc(C#N)c3)c(CNCc3cc(C)n(C)n3)cc2Cl)cccc1-c1cccc(OCC2CCCN(C)C2)c1Cl (stereo not drawn) [Example 2596, 5-((4-chloro-5-((2′-chloro-2-methyl-3′-((1-methylpiperidin-3-yl)methoxy)-[1,1′-biphenyl]-3-yl)methoxy)-2-((((1,5-dimethyl-1H-pyrazol-3-yl)methyl)amino)methyl)phenoxy)methyl)nicotinonitrile] | 2.9
9 | Cc1c(COc2cc(OCc3cncc(C#N)c3)c(CNCc3csc(N)n3)cc2Cl)cccc1-c1cccc(OCCCN2CC[C@@H](O)C2)c1C [Example 2520, (R)-5-((2-((((2-aminothiazol-4-yl)methyl)amino)methyl)-4-chloro-5-((3′-(3-(3-hydroxypyrrolidin-1-yl)propoxy)-2,2′-dimethyl-[1,1′-biphenyl]-3-yl)methoxy)phenoxy)methyl)nicotinonitrile] | 3.1
10 | Cc1c(COc2cc(OCc3cncc(C#N)c3)c(CNCc3ncco3)cc2Cl)cccc1-c1cccc(OCCCN2CC[C@@H](O)C2)c1C [Example 2546, (R)-5-((4-chloro-5-((3′-(3-(3-hydroxypyrrolidin-1-yl)propoxy)-2,2′-dimethyl-[1,1′-biphenyl]-3-yl)methoxy)-2-(((oxazol-2-ylmethyl)amino)methyl)phenoxy)methyl)nicotinonitrile] | 1.8
11 | Cc1c(COc2cc(OCc3cncc(C#N)c3)c(CN(C)Cc3ncn[nH]3)cc2Cl)cccc1-c1cccc(OCCCN2CCC(O)(CO)CC2)c1Cl [Example 2013, 5-((2-((((1H-1,2,4-triazol-5-yl)methyl)(methyl)amino)methyl)-4-chloro-5-((2′-chloro-3′-(3-(4-hydroxy-4-(hydroxymethyl)piperidin-1-yl)propoxy)-2-methyl-[1,1′-biphenyl]-3-yl)methoxy)phenoxy)methyl)nicotinonitrile] | 1.1
12 | Cc1ncsc1CCNCc1cc(Cl)c(OCc2cccc(-c3cccc(OCCCN4CC[C@@H](O)C4)c3C)c2C)cc1OCc1cncc(C#N)c1 [Example 2504, (R)-5-((4-chloro-5-((3′-(3-(3-hydroxypyrrolidin-1-yl)propoxy)-2,2′-dimethyl-[1,1′-biphenyl]-3-yl)methoxy)-2-(((2-(4-methylthiazol-5-yl)ethyl)amino)methyl)phenoxy)methyl)nicotinonitrile] | 1.8
13 | Cc1nc2c(s1)CN(Cc1cc(Cl)c(OCc3cccc(-c4cccc(OCCCN5CC[C@@H](O)C5)c4C)c3C)cc1OCc1cncc(C#N)c1)CC2 [Example 2503, (R)-5-((4-chloro-5-((3′-(3-(3-hydroxypyrrolidin-1-yl)propoxy)-2,2′-dimethyl-[1,1′-biphenyl]-3-yl)methoxy)-2-((2-methyl-6,7-dihydrothiazolo[5,4-c]pyridin-5(4H)yl)methyl)phenoxy)methyl)nicotinonitrile] | 3.9
14 | Cc1c(COc2cc(OCc3cncc(C#N)c3)c(CN(C)CCc3nc4ccccc4n3C)cc2Cl)cccc1-c1cccc(OCCCN2CC[C@@H](O)C2)c1C [Example 2510, (R)-5-((4-chloro-5-((3′-(3-(3-hydroxypyrrolidin-1-yl)propoxy)-2,2′-dimethyl-[1,1′-biphenyl]-3-yl)methoxy)-2-((methyl(2-(1-methyl-1H-benzo[d]imidazol-2-yl)ethyl)amino)methyl)phenoxy)methyl)nicotinonitrile] | 3.3

The remaining compounds from weak to strong by IC50, led by results:

Row | IC50 [nM] | SMILES
15 | 3.8 | CC(=O)NC1CCN(CCCOc2cccc(-c3cccc(COc4cc(OCc5cncc(C#N)c5)c(CN5CCCCC5c5ncc[nH]5)cc4Cl)c3C)c2C)CC1 (stereo not drawn) [Example 1045, N-(1-(3-((3′-((4-((2-(1H-Imidazol-2-yl)piperidin-1-yl)methyl)-2-chloro-5-((5-cyano-pyridin-3-yl)methoxy)phenoxy)methyl)-2,2′-dimethyl-[1,1′-biphenyl]-3-yl)oxy)propyl)-piperidin-4-yl)acetamide]
16 | 2.9 | Cc1c(COc2cc(OCc3cncc(C#N)c3)c(CNCc3nnn[nH]3)cc2Cl)cccc1-c1cccc(OCCCN2CC[C@@H](O)C2)c1C [Example 1002, (R)-5-((2-((((1H-Tetrazol-5-yl)methyl)amino)methyl)-4-chloro-5-((3′-(3-(3-hydroxy-pyrrolidin-1-yl)propoxy)-2,2′-dimethyl-[1,1′-biphenyl]-3-yl)methoxy)phenoxy)methyl)-nicotinonitrile]
17 | 2.8 | Cc1c(COc2cc(OCc3cncc(C#N)c3)c(CN3CCCCC3c3cn[nH]c3)cc2Cl)cccc1-c1cccc(OCC2CCCN(C)C2)c1Cl (stereo not drawn) [Example 1020, 5-((2-((2-(1H-Pyrazol-4-yl)piperidin-1-yl)methyl)-4-chloro-5-((2′-chloro-2-methyl-3′-((1-methylpiperidin-3-yl)methoxy)-[1,1′-biphenyl]-3-yl)methoxy)phenoxy)methyl)-nicotinonitrile]
18 | 2.5 | CC(=O)NC1CCN(CCCOc2cccc(-c3cccc(COc4cc(OCc5cncc(C#N)c5)c(CNCCc5nnnn5C)cc4Cl)c3C)c2C)CC1 [Example 1049, N-(1-(3-((3′-((2-Chloro-5-((5-cyanopyridin-3-yl)methoxy)-4-(((2-(1-methyl-1H-tetrazol-5-yl)ethyl)amino)methyl)phenoxy)methyl)-2,2′-dimethyl-[1,1′-biphenyl]-3-yl)oxy)-propyl)piperidin-4-yl)acetamide]
19 | 1.9 | Cc1c(COc2cc(OCc3cncc(C#N)c3)c(CNCCc3cc[nH]n3)cc2Cl)cccc1-c1cccc(OCCCN2CC[C@@H](O)C2)c1C [Example 2514, (R)-5-((2-(((2-(1H-pyrazol-3-yl)ethyl)amino)methyl)-4-chloro-5-((3′-(3-(3-hydroxypyrrolidin-1-yl)propoxy)-2,2′-dimethyl-[1,1′-biphenyl]-3-yl)methoxy)phenoxy)methyl)nicotinonitrile]
20 | 1.6 | Cc1c(COc2cc(OCc3cncc(C#N)c3)c(CN(C)Cc3cocn3)cc2Cl)cccc1-c1cccc(OCCCN2CC[C@@H](O)C2)c1C [Example 2544, (R)-5-((4-chloro-5-((3′-(3-(3-hydroxypyrrolidin-1-yl)propoxy)-2,2′-dimethyl-[1,1′-biphenyl]-3-yl)methoxy)-2-((methyl(oxazol-4-ylmethyl)amino)methyl)phenoxy)methyl)nicotinonitrile]
21 | 0.7 | Cc1c(COc2cc(OCc3cncc(C#N)c3)c(CN3CCCC(c4ccn[nH]4)C3)cc2Cl)cccc1-c1cccc(OCC2CCCN(C)C2)c1Cl (stereo not drawn) [Example 1024, 5-((2-((3-(1H-Pyrazol-5-yl)piperidin-1-yl)methyl)-4-chloro-5-((2′-chloro-2-methyl-3′-((1-methylpiperidin-3-yl)methoxy)-[1,1′-biphenyl]-3-yl)methoxy)phenoxy)methyl)-nicotinonitrile]

From patent publication US20240124417A1, “COMPOUNDS USEFUL AS IMMUNOMODULATORS” (Bristol-Myers Squibb Company, priority 2019, published 2024)
